Laboratory results as given in US6656972B2, “Control of pain with endogenous cannabinoids” (Neurosciences Research Foundation, Inc., priority 1998, dated 2003).
Entries after “also recorded” stand apart in the source; their conditions may differ. Counter-ions that a name gives are not always drawn.

How the values were obtained:
[1] = tested on: formalin-evoked pain behavior; test: Formalin-evoked pain behavior (paw licking, early and late phase) in mice; type: in vivo, male Swiss mice; conditions: for early phase of formalin-evoked pain behavior / late phase of formalin-evoked pain behavior: drug injected in the paw (i.pl.) together with formalin; for early phase of formalin-evoked pain behavior: 0-15 min; for late phase of formalin-evoked pain behavior: 15-30 min; for formalin-evoked nociceptive response / pain behavior (whole testing period): i.pl., 50 μg; for blockade of the antinociceptive effects of anandamide plus PEA (0.1 μg each): antagonist 0.1 mg per kg i.v., prior administration; for reversal of PEA-induced analgesia: prior administration of antagonist, PEA 50 μg i.pl.; for reversal of the antinociceptive effects of anandamide, WIN-55212-2 and HU-210: prior systemic administration of antagonist
Protocol: For instance, injection of dilute formalin in the hind-paws of freely moving rodents evokes a pain behavior consisting of two temporally distinct phases of licking and flexing of the injected limb. An early phase involving activation of primary sensory fibers begins immediately after formalin administration, reaches a peak within 5 min, and rapidly declines. Following an interval of 10-15 min, a second phase of sustained pain behavior appears, in which sensory fiber activity is accompanied by local inflammation and central sensitization.
Saline (10 μl) containing 5% formalin and 10% DMSO was injected subcutaneously in the hind-paws of male Swiss mice (20-25 g, Nossan, Italy). The duration of paw licking was monitored by an observer blind to the experimental treatment for periods of 0-15 min (early phase) and 15-30 min (late phase) after formalin administration. For the experiment in FIG. 4, pain behavior was monitored for 5 min periods during a 30 min period following formalin injection.

[2] = tested on: inflammatory edemas in the hind paws; test: Formalin-induced inflammatory paw edema (plethysmometer); type: in vivo, Swiss mice; conditions: after injection of formalin plus PEA (50 μg per paw); six mice; formalin alone 0.37±0.006, control 0.18±0.003
[3] = tested on: nerve conduction, blinking reflex of the cornea; test: Rabbit corneal reflex test (local anaesthetic activity); type: in vivo, male New Zealand rabbits; conditions: aqueous 2% solution with 30% DMSO into the conjunctival sac
Protocol: Local anaesthetic activity was evaluated in male New Zealand rabbits (2. 4-2.8 kg, Morini, Italy) by measuring the number of stimuli to the cornea, delivered with a Frey's horse-hair, necessary to produce the blinking reflex. Aqueous 2% solutions of PEA or lidocaine (a standard local anaesthetic) containing 30% DMSO were applied into the conjuctival sac.

[4] = tested on: behavioral response to acute thermal stimuli; test: Hot-plate test (time delays to escape jumping, 55.5 C) after intracerebroventricular administration; type: in vivo, mice; conditions: for hot-plate latencies: 10 μg (10 μg each for AEA/PEA), n = 6
[5] = rats, 10 min after i.pl. injection
[6] = 5 min after i.c.v. administration
[7] = 10 min after i.c.v. administration
[8] = 15 min after i.c.v. administration
[9] = 20 min after i.c.v. administration
[10] = 30 min after i.c.v. administration
[11] = 40 min after i.c.v. administration
[12] = 60 min after i.c.v. administration
[13] = antagonist alone, systemic administration, 0.1 mg per kg i.v.

Compound: CCCCCCC(C)(C)c1cc(O)c2c(c1)OC(C)(C)[C@@H]1CC=C(CO)C[C@@H]21 [HU-210]
- early phase of formalin-evoked pain behavior [1]: blocked
- late phase of formalin-evoked pain behavior [1]: blocked

Compound: CCCCCCCCCCCCCCCC(=O)NCCO [PEA, palmitylethanolamide]
- early phase of formalin-evoked pain behavior [1]: inhibited
- late phase of formalin-evoked pain behavior [1]: inhibited
- antinociceptive potency, local (i.pl.) compared with systemic (i.v. or i.p.) administration ([1]; i.pl. vs i.v. or i.p.): more potent when administered locally
- formalin-evoked nociceptive response / pain behavior (whole testing period) [1]: inhibits
- paw volume [2]: 0.35 ± 0.006 mL
- nerve conduction in the rabbit corneal reflex test (local anesthetic activity) [3]: did not affect
- hot-plate latencies [4, 6]: 22 ± 3 s
- hot-plate latencies [4, 7]: 23 ± 3 s
- hot-plate latencies [4, 8]: 21 ± 2 s
- hot-plate latencies [4, 9]: 25 ± 4 s
- hot-plate latencies [4, 10]: 26 ± 5 s
- hot-plate latencies [4, 11]: 22 ± 4 s
- hot-plate latencies [4, 12]: 24 ± 2 s
- enhancement of the inhibitory activity of anandamide in the hot-plate test ([4]; both injected in the cerebral ventricles): did not enhance
- behavioral responses to acute thermal stimuli, hot-plate test ([4]; injection in the cerebral ventricles): did not affect

Compound: Cc1c(C(=O)NN2CCCCC2)nn(-c2ccc(Cl)cc2Cl)c1-c1ccc(Cl)cc1 [SR141716A, [N-(piperidin-1-yl)-5-(4-chlorophenyl)-1-(2,4-dichlorophenyl)-4-methyl-1H-pyrazole-3-carboxamide. HCl]]
- blockade of the antinociceptive effects of anandamide plus PEA (0.1 μg each) [1]: prevent
- reversal of PEA-induced analgesia [1]: ineffective
- reversal of the antinociceptive effects of anandamide, WIN-55212-2 and HU-210 ([1]; 0.1 mg per kg i.v.): reversed

Compound: Cc1c(C(=O)c2cccc3ccccc23)c2cccc3c2n1[C@H](CN1CCOCC1)CO3 [WIN-55212-2]
- early phase of formalin-evoked pain behavior [1]: blocked
- late phase of formalin-evoked pain behavior [1]: blocked

Compound: CCCCC/C=C\C/C=C\C/C=C\C/C=C\CCCC(=O)NCCO [[^3H]anandamide]
- radioactivity in cerebellum [5]: 165±67 dpm per g
- radioactivity in forebrain [5]: 79±19 dpm per g
- radioactivity in spinal cord [5]: 90±48 dpm per g
- radioactivity in injected paw ([5]; mean±s.e.m.): 6648±820 dpm per g
- recovered [3H]anandamide remaining associated with the injected paw ([5]; three experiments): 94%

Compound: CCCCC/C=C\C/C=C\C/C=C\C/C=C\CCCC(=O)NCCO [anandamide, arachidonylethanolamide]
- early phase of formalin-evoked pain behavior [1]: completely blocked
- late phase of formalin-evoked pain behavior [1]: lack of effect; also recorded: no effect
- potency in preventing formalin-evoked pain behavior, i.pl. relative to i.v. ([1]; i.pl. vs i.v.): 100 times
- formalin-evoked nociceptive response / pain behavior (whole testing period) [1]: inhibits
- effect on formalin-evoked pain behavior ([1]; intraperitoneal (i.p.)): no effect
- half-maximal inhibitory dose (ID50), formalin-evoked pain behavior ([1]; intraplantar (i.pl.)): 0.1 mg per kg
- half-maximal inhibitory dose (ID50), formalin-evoked pain behavior ([1]; intravenous (i.v.)): 10 mg per kg
- hot-plate latencies [4, 6]: 24 ± 4 s
- hot-plate latencies [4, 7]: 23 ± 3 s
- hot-plate latencies [4, 8]: 29 ± 3 s
- hot-plate latencies [4, 9]: 35 ± 2 s
- hot-plate latencies [4, 10]: 40 ± 3 s
- hot-plate latencies [4, 11]: 30 ± 3 s
- hot-plate latencies [4, 12]: 28 ± 3 s

Compound: CCCCC/C=C\C/C=C\C/C=C\C/C=C\CCCC(=O)N[C@H](C)CO [methanandamide]
- formalin-evoked nociceptive response / pain behavior (whole testing period) [1]: inhibited pain behavior throughout the testing period

Compound: C=CCN1CC[C@]23c4c5ccc(O)c4O[C@H]2C(=O)CC[C@@]3(O)[C@H]1C5 [naloxone]
- reversal of PEA-induced analgesia [1]: ineffective

Compound: N-[(1S)-endo-1,3,3-trimethyl bicyclo [2.2.1]heptan-2-yl]-5-(4-chloro-3-methylphenyl)-1-(4-methylbenzyl)-pyrazole-3-carboxamide [SR144528]
- blockade of the antinociceptive effects of anandamide plus PEA (0.1 μg each) [1]: prevent
- intrinsic effect of antagonist on early phase of formalin-evoked pain behavior [1, 13]: selective enhancement; also recorded: selectively enhanced
- intrinsic effect of antagonist on late phase of formalin-evoked pain behavior [1, 13]: not
- reversal of PEA-induced analgesia [1]: completely reversed
- reversal of the antinociceptive effects of anandamide, WIN-55212-2 and HU-210 ([1]; 0.1 mg per kg i.v.): not
